Activity calls are given as the source filed them. No cut-off for these calls is given here.
Columns and labels:
Mus musculus [1] = organism: Mus musculus; assay: (§1) Neuroprotective activity in C57BL/6 mouse model of transient middle cerebral artery occlusion induced cerebral ischemia reperfusion injury assessed as neuronal apoptosis by measuring increase in TUNEL positive nuclei measured after 12 hrs by TUNEL staining based assay; format: functional, organism-based
Mus musculus [2] = assay: Neuroprotective activity in C57BL/6 mouse model of transient middle cerebral artery occlusion induced cerebral ischemia reperfusion injury assessed as neurological deficits at 10 mg/kg, ip measured 24 hrs after reperfusion by […] (reference value: 5.86 +/- 0.64); format: functional
Mus musculus [3] = assay: Neuroprotective activity in C57BL/6 mouse model of transient middle cerebral artery occlusion induced cerebral ischemia reperfusion injury assessed reduction in infarct size at 10 mg/kg, ip measured after 24 hrs by TTC staining based assay; format: functional, organism-based
[4] = (§2) Downregulation of AIF expression […] of C57BL/6 mouse model of transient middle cerebral artery occlusion induced cerebral ischemia reperfusion injury assessed as AIP-posotive cells in hippocampus at 10 mg/kg, ip measured after 24 hrs of reperfusion by immunohistochemistry (reference value: 27.35 +/- 3.67); format: functional
[5] = Downregulation of cyt-c expression in cortex of C57BL/6 mouse model of transient middle cerebral artery occlusion induced cerebral ischemia reperfusion injury at 10 mg/kg, ip measured after 24 hrs of reperfusion by immunohistochemistry (reference value: 15.58 +/- 2.34); format: functional
[6] = Downregulation of cyt-c expression in cortex of C57BL/6 mouse model of transient middle cerebral artery occlusion induced cerebral ischemia reperfusion injury measured after 24 hrs of reperfusion by immunohistochemistry; format: functional
Mus musculus [7] = organism: Mus musculus; assay: Neuroprotective activity in C57BL/6 mouse model of transient middle cerebral artery occlusion induced cerebral ischemia reperfusion injury assessed as neuronal apoptosis by measuring increase in caspase-3 positive cells incubated for 1 hrs by immunohistochemistry; format: functional, organism-based
Mus musculus [8] = assay: Neuroprotective activity in C57BL/6 mouse model of transient middle cerebral artery occlusion induced cerebral ischemia reperfusion injury assessed as change in infract volume at 10 mg/kg, ip measured after 24 hrs by TTC staining based assay (reference value: 21.86 +/- 4.65 %); format: functional
[9] = as §2, with “ischemic cortex” for “hippocampus”, “46.7” for “27.35”, “3.45)” for “3.67)”; format: functional
[10] = Downregulation of cyt-c expression in hippocampus of C57BL/6 mouse model of transient middle cerebral artery occlusion induced cerebral ischemia reperfusion injury measured after 24 hrs of reperfusion by immunohistochemistry; format: functional
Mus musculus [11] = assay: as §1, with “inhibition of” for “neuronal”, “decrease” for “increase”, “nuclei in cortex at 10 mg/kg, ip” for “nuclei”, “assay (reference value: 53.64 +/- 7.63)” for “assay”; format: functional
Mus musculus [12] = assay: as §1, with “inhibition of” for “neuronal”, “decrease” for “increase”, “nuclei in hippocampus at 10 mg/kg, ip” for “nuclei”, “assay (reference value: 55.42 +/- 4.86)” for “assay”; format: functional
[13] = Downregulation of cyt-c expression in hippocampus of C57BL/6 mouse model of transient middle cerebral artery occlusion induced cerebral ischemia reperfusion injury at 10 mg/kg, ip measured after 24 hrs of reperfusion by immunohistochemistry (reference value: 20.52+/- 2.08); format: functional
Mus musculus [14] = assay: Neuroprotective activity in C57BL/6 mouse model of transient middle cerebral artery occlusion induced cerebral ischemia reperfusion injury assessed as inhibition of apoptosis by measuring decrease in caspase-3 positive cells in cortex at 10 mg/kg, ip incubated for 1 hrs by immunohistochemistry (reference value: 7.58 +/- 2.15); format: functional

## c1cc(-c2cnn3cc(-c4ccc(OCCN5CCCCC5)cc4)cnc23)ccn1 [DORSOMORPHIN]
Mus musculus [1]
  Activity: Active
Mus musculus [2]
  Activity: 9.26
Mus musculus [3]
  Activity: Active
[4]
  fold change (FC): 13.17
[5]
  fold change (FC): 45.32
[6]
  fold change (FC): 45.32
Mus musculus [7]
  Activity: Active
Mus musculus [8]
  Activity: 42.56%
[9]
  fold change (FC): 26.36
[10]
  fold change (FC): 52.08
Mus musculus [11]
  Activity: 53.64
Mus musculus [12]
  Activity: 55.42
[13]
  fold change (FC): 52.08
Mus musculus [14]
  Activity: 15.63
